Experimental data taken from US7163920B2, “Peptide with osteogenic activity” (Ethicon, Inc., priority 2003, dated 2007).

Key:
[1] = system: Primary human osteoblasts; assay: 3H-thymidine incorporation, proliferative response of human osteoblasts; type: cell-based
Method: (§1) Primary human osteoblasts were trypsinized and cell counts determined. Cells were resuspended at a concentration of 0.5×10^5 cells/ml in growth medium [Dulbeccos Modified Eagles Medium (DMEM) 10% Fetal Bovine Serum (FBS), 100 units Penicillin and 50 μg/ml Streptomycin]. A 100 μl aliquot of cells was added to each well in a 96 well dish. Cells were allowed to adhere for 24 hours and then refed with DMEM containing 0.5% FBS for 24 hours. Thereafter, several concentrations (10, 100, 500 μg/ml final concentration) of peptide in DMEM containing 0.5% FBS were added to different wells in quadruplicate. These plates were incubated in a cell culture incubator at 37° C. 5% CO2 for 48 hours. Subsequently, 0.1 μCi of ^3H-thymidine was added to each well, and incubated at 37° C. for an additional 3 hours prior to harvest. Cells were lysed and the lysate was placed in scintillation fluid and the amount of thymidine incorporated was determined by beta counting (in Counts Per Minute, or CPM).
To help determine a maximal stimulation of cell proliferation, the study was repeated with concentrations of 10, 50, 100, and 200 μg/ml final concentration) of the peptide represented by SEQ. ID NO: 1 in DMEM containing 0.5% FBS.
The experiments were set up as described for Example 1, with proliferation assessed by measurement of thymidine incorporation into newly synthesized DNA. […] These plates were incubated at 37° C. in 5% CO2 for 48 hours and processed for analysis as mentioned in Example 1.

[2] = system: human chondrocytes; assay: 3H-thymidine incorporation, proliferative response of human chondrocytes; type: cell-based; settings: for 3H-Thymidine Incorporation Into Chondrocytes: Table 3, 48 hours
Method: as §1
(§2) The effect of the peptide […] (SEQ. ID NO: 1) on stimulation of human chondrocyte proliferation was assessed by thymidine incorporation as described above. The experiments were set up as detailed in Example 1. Following serum starvation, cells were treated with the peptide at concentration of 10, 100, and 500 μg/ml of peptide in DMEM containing 0.5% FBS. These plates were incubated at 37° C. in 5% CO2 for 48 hours and processed for analysis as described in Example 1.

[3] = system: human fibroblasts; assay: 3H-thymidine incorporation, proliferative response of human fibroblasts; type: cell-based; settings: for 3H-Thymidine Incorporation Into Fibroblasts: Table 4 (human fibroblasts per Example 4), 48 hours
Method: as §1
as §2, with “fibroblast” for “chondrocyte”

[4] = Elman's test (DTNB) for free sulfhydryl groups, with UV measurement; type: physicochemical; settings: for Free Sulfhydryl Group Content, Optical density At 412 nM: 0.5 mM peptide in Elman's reaction buffer pH 8.0
Method: (§3) The formation of inter- or intra-chain disulfide bonds was determined by Elman's test and a reverse phase HPLC method. The peptide represented by SEQ. ID NO: 1 was dissolved in 50 mM sodium acetate, pH 5.2, containing 1 mM EDTA to a stock solution of 10 mM. The stock solution was further diluted with either 50 mM sodium acetate buffer or Elman's reaction buffer ([…], pH 8.0, containing 1 mM EDTA) to a final concentration of 0.5 mM. Samples prepared with sodium acetate buffer were kept at 5° C. for HPLC analysis later.
The reagent used in Elman's test is 5,5′-dithio-bis-(2-nitrobenzoic acid), also know as DTNB. […] Sulfhydryl groups can be quantitated in a sample by comparison to a standard curve prepared with know concentrations of sulfhydryl-containing compound such as cysteine. The measurement of free sulfhydryl group was performed when the peptide was freshly prepared and after 24 hours incubation at 37° C. The incubation step was designed to mimic the cell culture conditions and to create conditions for inter- or intra-chain disulfide bond formations. To examine the integrity of the peptide after incubation, a UV measurement was performed when the peptide (SEQ. ID NO: 1) was freshly prepared and after 24 hours incubation.

[5] = Reverse phase HPLC for peptide integrity after disulfide bond formation; type: physicochemical
Method: as §3
To determine the integrity of the peptide of SEQ. ID NO: 1 after disulfide bond formations, samples in sodium acetate buffer (1G1) and in Elman's reaction buffer (1G2) were subjected to reverse phase HPLC after a 24 hour incubation at 37° C. In particular, a 0–80% acetonitrile gradient in 0.1% TFA was used over 15 minutes at a flow rate of 2 ml/min on a Vydac C-18 column. Detection was at 214 nm.

[6] = after 24 hrs incubation at 37° C.

Q: With “CGGGRWCG (synthesized primer) [ID NO: 1, synthesized by Invitrogen Corporation]” as the sequence, how does the “3H-Thymidine Incorporation Into Osteoblasts” value ([1]; Table 1A, peptide 0 μg/ml, DMEM 0.5% FBS, 48 hours) read?
A: Its value is 591 +/− 39 CPM.

Q: And the “stimulation of proliferation as compared to controls treated with 0.1% BSA” value ([1]; Table 1A, peptide 100 μg/ml)?
A: Its value is 2.5 fold.

Q: And the “3H-Thymidine Incorporation Into Osteoblasts” value ([1]; Table 1A, peptide 100 μg/ml, DMEM 0.5% FBS, 48 hours)?
A: The value was 1228 +/− 157 CPM.

Q: What about the “stimulation of osteoblast proliferation” value ([1]; Table 1A, peptide 500 μg/ml) of the same sequence?
A: Its value is “no statistical stimulation”.

Q: And the “3H-Thymidine Incorporation Into Osteoblasts” value ([1]; Table 1A, peptide 500 μg/ml, DMEM 0.5% FBS, 48 hours)?
A: The value was 629 +/− 46 CPM.

Q: And the “3H-Thymidine Incorporation Into Osteoblasts” value ([1]; Table 1B (repeat study), peptide 10 μg/ml)?
A: Its value is 807 +/− 45 CPM.

Q: What about the “3H-Thymidine Incorporation Into Osteoblasts” value ([1]; Table 1B (repeat study), peptide 50 μg/ml) of the same sequence?
A: The value was 948 +/− 62 CPM.

Q: What about the “3H-Thymidine Incorporation Into Osteoblasts” value ([1]; Table 1B (repeat study), peptide 100 μg/ml) of the same sequence?
A: The value was 1150 +/− 37 CPM.

Q: What about the “3H-Thymidine Incorporation Into Osteoblasts” value ([1]; Table 1B (repeat study), peptide 200 μg/ml) of the same sequence?
A: Its value is 1565 +/− 98 CPM.

Q: What about the “concentration of maximal stimulation of proliferation (dose dependant)” value ([1]; Table 1B, 10-200 μg/ml tested) of the same sequence?
A: The value was 200 µg/mL.

Q: And the “stimulation of proliferation relative to cells cultured in the presence of serum” value ([1]; Table 1B, maximal stimulation at 200 μg/ml vs 10% FBS)?
A: The value was “approximately 75%”.

Q: And the “3H-Thymidine Incorporation Into Osteoblasts” value ([1]; Table 2 (Example 2), peptide 200 ug/ml)?
A: The value was 3446 +/− 333 CPM.

Q: And the “stimulation of osteoblast proliferation (fold, words)” value ([1]; Table 2, peptide 200 ug/ml)?
A: Its value is “two fold”.

Q: And the “stimulation of proliferation of human chondrocytes” value ([2]; 10, 100, and 500 μg/ml)?
A: Its value is “did not stimulate proliferation”.

Q: And the “3H-Thymidine Incorporation Into Chondrocytes” value ([2]; peptide 10 μg/ml)?
A: The value was 803 +/− 96 CPM.

Q: And the “3H-Thymidine Incorporation Into Chondrocytes” value ([2]; peptide 100 μg/ml)?
A: Its value is 726 +/− 88 CPM.

Q: What about the “3H-Thymidine Incorporation Into Chondrocytes” value ([2]; peptide 500 μg/ml) of the same sequence?
A: The value was 640 +/− 80 CPM.

Q: And the “stimulation of proliferation of human fibroblasts” value ([3]; 10, 100, and 500 μg/ml)?
A: The value was “did not stimulate proliferation”.

Q: And the “3H-Thymidine Incorporation Into Fibroblasts” value ([3]; peptide 10 μg/ml)?
A: Its value is 1281 +/− 86 CPM.

Q: And the “3H-Thymidine Incorporation Into Fibroblasts” value ([3]; peptide 100 μg/ml)?
A: The value was 1103 +/− 76 CPM.

Q: What about the “3H-Thymidine Incorporation Into Fibroblasts” value ([3]; peptide 500 μg/m1) of the same sequence?
A: The value was 1088 +/− 64 CPM.

Q: And the “free sulfhydryl group content after incubation” value ([4]; after 24 hour incubation at 37° C., 412 nM)?
A: Its value is “reduced significantly”.

Q: And the “Optical density At 280 nM (UV measurement, integrity of the peptide)” value [4, 6]?
A: The value was 2.037.

Q: And the “Free Sulfhydryl Group Content, Optical density At 412 nM” value [4, 6]?
A: Its value is 0.011.

Q: What about the “change of absorbance at 280 nM” value ([4]; fresh vs 24 hour old samples) of the same sequence?
A: Its value is “did not change”.

Q: What about the “Optical density At 280 nM (UV measurement, integrity of the peptide)” value ([4]; freshly prepared) of the same sequence?
A: The value was 2.127.

Q: What about the “Free Sulfhydryl Group Content, Optical density At 412 nM” value ([4]; freshly prepared) of the same sequence?
A: The value was 0.71.

Q: What about the “disulfide structure formed, reverse phase HPLC” value ([5]; Elman's reaction buffer pH 8.0 (1G2), 24 hour incubation at 37° C.) of the same sequence?
A: Its value is “formed intra-chain disulfide bonds (ring structure) and not a higher lever structure”.

Q: And the “integrity of the peptide by reverse phase HPLC” value ([5]; after 24 hours incubation at 37° C.)?
A: Its value is “intact”.

Q: What about the “sulfhydryl state, reverse phase HPLC” value ([5]; sodium acetate buffer pH 5.2 (1G1), 24 hours incubation) of the same sequence?
A: The value was “predominately contained free sulfhydryl groups”.
